Test results published in ChEMBL document CHEMBL1146858 (Bioorg Med Chem Lett, 2006).

Key:
[1] = molecular target: Coagulation factor VII/tissue factor (Homo sapiens) (UniProt P08709+P13726); test: Anticoagulant activity in plasma by PT assay; type: functional, cell-free
[2] = Volume of distribution in dog; type: ADME, organism-based, Canis lupus familiaris; details: in vivo, read-out: Vdss
[3] = Half life in orally dosed dog; type: ADME, organism-based, Canis lupus familiaris; details: in vivo, po
[4] = Apparent permeability in Caco-2 cells; type: ADME, cell-based; details: human
Prothrombin = Prothrombin (Homo sapiens, UniProt P00734); test: Binding affinity to human F2a
Oryctolagus cuniculus [5] = species on record: Oryctolagus cuniculus
[6] = Clearance in dog; type: ADME, organism-based, Canis lupus familiaris; details: in vivo
Coagulation factor X = Coagulation factor X (Homo sapiens, UniProt P00742); test: Binding affinity to human F10a
Chain of Coagulation factor X (P00742 41-179 limits assumed): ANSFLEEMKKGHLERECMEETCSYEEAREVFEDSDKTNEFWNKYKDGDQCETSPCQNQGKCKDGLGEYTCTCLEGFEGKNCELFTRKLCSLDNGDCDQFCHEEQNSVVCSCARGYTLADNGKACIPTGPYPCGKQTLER
Chain of Coagulation factor X (P00742 235-488 limits assumed): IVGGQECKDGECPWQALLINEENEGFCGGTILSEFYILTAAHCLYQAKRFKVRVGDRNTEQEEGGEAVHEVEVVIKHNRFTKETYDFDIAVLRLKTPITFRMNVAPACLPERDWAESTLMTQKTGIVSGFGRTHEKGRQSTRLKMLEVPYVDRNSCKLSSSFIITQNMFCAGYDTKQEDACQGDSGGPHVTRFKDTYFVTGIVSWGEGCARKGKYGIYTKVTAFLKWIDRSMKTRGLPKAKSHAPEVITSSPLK

[7] = Oral bioavailability in orally dosed dog; type: ADME, organism-based, Canis lupus familiaris; details: in vivo
Plasminogen = Plasminogen (Homo sapiens, UniProt P00747); test: Binding affinity to human plasmin
Chain of Plasminogen (P00747 97-580 limits assumed): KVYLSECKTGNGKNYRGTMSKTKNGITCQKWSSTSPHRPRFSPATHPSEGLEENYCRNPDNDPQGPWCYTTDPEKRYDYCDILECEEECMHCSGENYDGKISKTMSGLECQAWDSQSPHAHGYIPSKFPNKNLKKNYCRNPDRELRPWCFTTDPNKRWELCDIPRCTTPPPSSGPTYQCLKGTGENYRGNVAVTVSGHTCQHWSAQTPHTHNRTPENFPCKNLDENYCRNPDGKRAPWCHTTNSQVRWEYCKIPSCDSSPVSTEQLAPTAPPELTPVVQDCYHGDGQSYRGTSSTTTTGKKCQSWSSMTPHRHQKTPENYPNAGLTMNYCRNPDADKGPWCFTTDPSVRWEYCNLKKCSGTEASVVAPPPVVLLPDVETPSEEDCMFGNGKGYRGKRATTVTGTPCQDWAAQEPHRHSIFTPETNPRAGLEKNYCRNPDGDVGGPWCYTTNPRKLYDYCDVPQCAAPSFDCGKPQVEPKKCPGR
Chain of Plasminogen (P00747 581-810 limits assumed): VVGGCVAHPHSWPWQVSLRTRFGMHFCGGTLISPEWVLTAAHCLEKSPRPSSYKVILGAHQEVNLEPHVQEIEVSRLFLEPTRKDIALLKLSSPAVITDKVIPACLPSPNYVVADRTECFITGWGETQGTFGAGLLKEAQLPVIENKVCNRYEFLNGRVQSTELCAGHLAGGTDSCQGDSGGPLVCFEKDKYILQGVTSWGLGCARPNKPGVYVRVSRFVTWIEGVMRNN

Plasma kallikrein = Plasma kallikrein (Homo sapiens, UniProt P03952); test: Binding affinity to human plasma kallikrein; type: cell-free
Chain of Plasma kallikrein (P03952 20-390 limits assumed): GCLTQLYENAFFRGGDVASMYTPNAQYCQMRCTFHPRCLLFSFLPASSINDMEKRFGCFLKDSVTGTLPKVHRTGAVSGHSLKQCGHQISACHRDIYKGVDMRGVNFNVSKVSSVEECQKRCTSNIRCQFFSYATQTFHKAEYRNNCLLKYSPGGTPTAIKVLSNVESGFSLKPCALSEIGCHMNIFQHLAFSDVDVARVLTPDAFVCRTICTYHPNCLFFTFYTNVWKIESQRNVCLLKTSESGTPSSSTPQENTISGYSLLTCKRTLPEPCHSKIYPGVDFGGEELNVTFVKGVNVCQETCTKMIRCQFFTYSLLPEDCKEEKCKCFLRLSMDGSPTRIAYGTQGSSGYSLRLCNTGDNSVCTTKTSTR
Chain of Plasma kallikrein (P03952 391-638 limits assumed): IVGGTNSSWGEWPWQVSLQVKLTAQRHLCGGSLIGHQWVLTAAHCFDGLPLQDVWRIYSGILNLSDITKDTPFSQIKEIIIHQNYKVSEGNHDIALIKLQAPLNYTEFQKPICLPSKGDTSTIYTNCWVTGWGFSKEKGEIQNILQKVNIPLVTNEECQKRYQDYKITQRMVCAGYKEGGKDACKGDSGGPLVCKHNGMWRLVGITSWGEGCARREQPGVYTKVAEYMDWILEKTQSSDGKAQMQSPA

Coagulation factor IX = Coagulation factor IX (Homo sapiens, UniProt P00740); test: Binding affinity to human f9a
Chain of Coagulation factor IX (P00740 47-191 limits assumed): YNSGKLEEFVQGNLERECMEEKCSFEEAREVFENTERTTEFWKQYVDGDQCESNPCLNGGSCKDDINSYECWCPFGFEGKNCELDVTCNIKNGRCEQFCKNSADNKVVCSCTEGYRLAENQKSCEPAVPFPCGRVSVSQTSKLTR
Chain of Coagulation factor IX (P00740 227-461 limits assumed): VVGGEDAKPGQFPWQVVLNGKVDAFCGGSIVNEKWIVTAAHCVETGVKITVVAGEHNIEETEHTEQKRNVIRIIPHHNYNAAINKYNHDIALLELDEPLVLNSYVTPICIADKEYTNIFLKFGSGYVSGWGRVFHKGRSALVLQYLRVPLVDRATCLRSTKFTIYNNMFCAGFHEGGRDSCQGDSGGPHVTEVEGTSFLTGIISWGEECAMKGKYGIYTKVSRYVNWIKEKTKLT

[8] = Protein binding in plasma by equilibrium dialysis assay; type: ADME, cell-free; details: read-out: PPB (converted)
Coagulation factor VII = molecular target: T1, Coagulation factor VII (Homo sapiens, UniProt P08709); test: Binding affinity to human f7a
T1 sequence (P08709 whole entry): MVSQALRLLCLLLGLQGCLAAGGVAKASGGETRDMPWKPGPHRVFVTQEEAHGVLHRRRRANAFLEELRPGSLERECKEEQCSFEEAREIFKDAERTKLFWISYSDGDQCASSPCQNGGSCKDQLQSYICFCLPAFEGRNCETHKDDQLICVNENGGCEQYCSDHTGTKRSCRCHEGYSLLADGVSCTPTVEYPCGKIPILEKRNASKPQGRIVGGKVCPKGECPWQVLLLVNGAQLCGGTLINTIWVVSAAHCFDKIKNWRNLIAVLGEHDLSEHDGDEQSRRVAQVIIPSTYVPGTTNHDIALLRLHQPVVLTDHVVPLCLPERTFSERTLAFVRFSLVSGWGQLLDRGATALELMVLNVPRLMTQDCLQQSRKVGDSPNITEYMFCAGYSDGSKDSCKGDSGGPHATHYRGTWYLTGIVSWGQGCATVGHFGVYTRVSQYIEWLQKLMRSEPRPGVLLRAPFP

[9] = molecular target: Vitamin K-dependent protein C (Homo sapiens, UniProt P04070); test: Binding affinity to human APC
Chain of Vitamin K-dependent protein C (P04070 43-197 limits assumed): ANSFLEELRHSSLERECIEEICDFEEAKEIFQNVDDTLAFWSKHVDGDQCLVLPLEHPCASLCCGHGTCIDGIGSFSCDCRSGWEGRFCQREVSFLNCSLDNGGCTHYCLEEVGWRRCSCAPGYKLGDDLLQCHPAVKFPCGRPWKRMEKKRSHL
Chain of Vitamin K-dependent protein C (P04070 212-461 limits assumed): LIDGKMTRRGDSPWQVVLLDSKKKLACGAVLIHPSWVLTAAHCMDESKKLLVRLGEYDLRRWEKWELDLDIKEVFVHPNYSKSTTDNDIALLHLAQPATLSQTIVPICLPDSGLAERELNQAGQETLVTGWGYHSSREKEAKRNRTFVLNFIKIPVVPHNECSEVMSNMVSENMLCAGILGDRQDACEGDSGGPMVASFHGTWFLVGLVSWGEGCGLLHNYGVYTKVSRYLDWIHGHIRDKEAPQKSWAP

Chymotrypsinogen B = Chymotrypsinogen B (Homo sapiens, UniProt P17538); test: Binding affinity to human chymotrypsin
Chain of Chymotrypsinogen B (P17538 34-164 limits assumed, other chains not shown): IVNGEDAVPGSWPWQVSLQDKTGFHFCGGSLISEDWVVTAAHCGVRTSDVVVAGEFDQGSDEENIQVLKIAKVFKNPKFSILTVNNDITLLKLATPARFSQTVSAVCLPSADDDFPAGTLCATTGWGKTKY
Chain of Chymotrypsinogen B (P17538 167-263 limits assumed, other chains not shown): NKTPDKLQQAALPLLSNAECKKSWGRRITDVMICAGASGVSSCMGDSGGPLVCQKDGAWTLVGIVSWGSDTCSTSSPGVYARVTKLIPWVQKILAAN

Trypsin = Trypsin (Homo sapiens, UniProt P07477+P07478+P35030); test: Binding affinity to human trypsin; type: protein assay
[10] = molecular target: Tissue-type plasminogen activator (Homo sapiens, UniProt P00750); test: Binding affinity to human tPA
Chain of Tissue-type plasminogen activator (P00750 whole entry): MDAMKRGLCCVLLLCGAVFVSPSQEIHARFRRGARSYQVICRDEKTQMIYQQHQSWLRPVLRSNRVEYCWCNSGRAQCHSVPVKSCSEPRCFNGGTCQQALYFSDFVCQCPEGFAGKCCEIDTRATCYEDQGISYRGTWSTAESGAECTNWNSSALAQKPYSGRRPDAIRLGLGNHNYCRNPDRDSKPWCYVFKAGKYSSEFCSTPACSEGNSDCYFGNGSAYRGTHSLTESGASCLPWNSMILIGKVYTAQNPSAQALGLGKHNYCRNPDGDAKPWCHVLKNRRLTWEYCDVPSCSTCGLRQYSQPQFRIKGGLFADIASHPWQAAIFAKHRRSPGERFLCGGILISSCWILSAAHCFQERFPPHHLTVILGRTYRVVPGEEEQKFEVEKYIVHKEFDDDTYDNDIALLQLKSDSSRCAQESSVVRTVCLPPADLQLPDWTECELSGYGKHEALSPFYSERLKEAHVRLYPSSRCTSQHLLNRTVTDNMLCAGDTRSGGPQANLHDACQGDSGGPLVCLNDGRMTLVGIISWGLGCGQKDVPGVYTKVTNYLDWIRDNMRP

Oryctolagus cuniculus [11] = species on record: Oryctolagus cuniculus; test: cells

Row | Structure (SMILES) | 2PT [1] [µM] | Vd [2] [L/kg] | half-life [3] [h] | Ki (Prothrombin) [nM] | clearance [6] [mL/min/kg] | Ki (Coagulation factor X) [nM] | bioavailability [7] [%] | also measured
1 | Cc1nn(-c2ccc3onc(N)c3c2)c2c1CCN(c1ccc(-c3ccccc3CN3CC[C@@H](O)C3)cc1)C2=O | 2.8 | 0.75 | 1.7 | 130 | 7 | 0.27 | 44 | Papp [4]: 6.2 ×10⁻⁶ cm/s; ID50 (Oryctolagus cuniculus [5]): 0.6 ug/hr.kg
2 | Nc1noc2ccc(-n3nc(C(F)(F)F)c4c3C(=O)N(c3ccc(-c5ccccc5CN5CC[C@@H](O)C5)cc3)CC4)cc12 | 3.6 |  |  | 35 |  |  | 82 | Ki (Plasminogen): > 2800 nM; Ki (Plasma kallikrein): > 2800 nM; Ki (Coagulation factor IX): > 2800 nM; Papp [4]: 1.7 ×10⁻⁶ cm/s; fraction unbound [8]: 0.026; Ki (Coagulation factor VII): > 2800 nM; Ki [9]: > 2800 nM; Ki (Chymotrypsinogen B): > 2800 nM; Ki (Trypsin): > 2800 nM; Ki [10]: > 2800 nM
3 | Nc1noc2ccc(-n3nc(C(F)(F)F)c4c3C(=O)N(c3ccc(-c5ccccc5CN5CCNCC5)cc3)CC4)cc12 | 14 |  |  | 280 |  | 0.64 |  | 
4 | Cc1nn(-c2ccc3onc(N)c3c2)c2c1CCN(c1ccc(-c3ccccc3CN3CCCC3)cc1)C2=O | 1.4 | 3.3 | 1.7 | 120 | 31.7 | 0.31 | 10 | 
5 | Nc1noc2ccc(-n3nc(C(F)(F)F)c4c3C(=O)N(c3ccc(-c5ccccc5CN5CC[C@@H](O)C5)cc3F)CC4)cc12 | 8.4 | 2.8 | 5.9 | 72 | 5.83 | 0.16 | 81 | Papp [4]: 13 ×10⁻⁶ cm/s; IC50 (Oryctolagus cuniculus [11]): 600 nM; fraction unbound [8]: < 0.02
6 | CCN(C)Cc1ccccc1-c1ccc(N2CCc3c(C(F)(F)F)nn(-c4ccc5onc(N)c5c4)c3C2=O)cc1 | 3.2 |  |  | 57 |  | < 0.1 |  | 
7 | CCN(CC)Cc1ccccc1-c1ccc(N2CCc3c(C(F)(F)F)nn(-c4ccc5onc(N)c5c4)c3C2=O)cc1 | 3 |  |  | 97 |  | 0.11 |  | 
8 | CN(C)Cc1ccccc1-c1ccc(N2CCCc3c(C(F)(F)F)nn(-c4ccc5onc(N)c5c4)c3C2=O)cc1 | 4 |  |  |  |  | 0.81 |  | 
9 | Nc1noc2ccc(-n3nc(C(F)(F)F)c4c3C(=O)N(c3ccc(-c5ccccc5CN5CCCC5)cc3)CC4)cc12 | 3.2 | 5 | 5.3 | 58 | 16.8 | 0.15 | 37 | 
10 | CN(C)Cc1ccccc1-c1ccc(N2CNc3c(C(F)(F)F)nn(-c4ccc5onc(N)c5c4)c3C2=O)cc1 | 1.4 |  |  |  |  | 0.25 |  | 
11 | Nc1noc2ccc(-n3nc(C(F)(F)F)c4c3C(=O)N(c3ccc(-c5ccccc5CN5CCCC5)cc3F)CC4)cc12 | 6.1 | 4.8 | 4.9 |  | 13.2 | 0.24 | 85 | IC50 (Oryctolagus cuniculus [11]): 1000 nM; fraction unbound [8]: < 0.02
12 | Nc1noc2ccc(-n3nc(C(F)(F)F)c4c3C(=O)N(c3ccc(-c5ccccc5CN5CCC(O)CC5)cc3)CC4)cc12 | 4.9 | 1.4 | 6.4 | 71 | 3.5 | 0.22 | 102 | Papp [4]: 0.4 ×10⁻⁶ cm/s; IC50 (Oryctolagus cuniculus [11]): 510 nM
13 | CNCc1ccccc1-c1ccc(N2CCc3c(C(F)(F)F)nn(-c4ccc5onc(N)c5c4)c3C2=O)cc1 | 3.7 | 9.7 | 7.4 | 150 | 27.7 | 0.34 | 67 | 
14 | Cc1nn(-c2ccc3onc(N)c3c2)c2c1CCN(c1ccc(-c3ccccc3CN3CC[C@@H](O)C3)cc1F)C2=O | 4.9 | 1.1 | 1.1 | 250 | 15.7 | 0.34 | 62 | 
15 | CN(C)Cc1ccccc1-c1ccc(N2CC=Cc3c(C(F)(F)F)nn(-c4ccc5onc(N)c5c4)c3C2=O)cc1 | 6.9 |  |  |  |  | 0.6 |  | 
16 | CN(C)Cc1ccccc1-c1ccc(N2CCc3c(C(F)(F)F)nn(-c4ccc5onc(N)c5c4)c3C2=O)c(F)c1 | 5.6 | 8.8 | 6.4 | 75 | 17.5 | 0.13 | 83 | Papp [4]: 8.9 ×10⁻⁶ cm/s; IC50 (Oryctolagus cuniculus [11]): 600 nM; fraction unbound [8]: < 0.02
17 | Cc1nn(-c2ccc3onc(N)c3c2)c2c1CCN(c1ccc(-c3ccccc3CN(C)C)cc1)C2=O | 2.1 | 6.4 | 1.6 | 380 | 53.3 | 0.55 | 13 | Papp [4]: 6.8 ×10⁻⁶ cm/s
18 | CN(C)Cc1ccccc1-c1ccc(N2CCCc3c(C(F)(F)F)nn(-c4ccc5onc(N)c5c4)c3C2=O)c(F)c1 | 8.5 |  |  |  |  | 0.85 |  | 
19 | Nc1noc2ccc(-n3nc(C(F)(F)F)c4c3C(=O)N(c3ccc(-c5ccccc5CN5CC[C@H](O)C5)cc3)CC4)cc12 | 4.8 | 1.12 | 4.5 | 59 | 4.5 |  | 52 | 
20 | CN(C)Cc1ccccc1-c1ccc(N2CC=Cc3c(C(F)(F)F)nn(-c4ccc5onc(N)c5c4)c3C2=O)c(F)c1 | 15 |  |  |  |  | 0.6 |  | 
21 | CN(C)Cc1ccccc1-c1ccc(N2CCc3c(C(F)(F)F)nn(-c4ccc5onc(N)c5c4)c3C2=O)cc1 | 2.7 | 4.5 | 3.8 | 43 | 16.3 | 0.04 | 50 | Papp [4]: 4.7 ×10⁻⁶ cm/s; IC50 (Oryctolagus cuniculus [11]): 223 nM
22 | CN1CCN(Cc2ccccc2-c2ccc(N3CCc4c(C(F)(F)F)nn(-c5ccc6onc(N)c6c5)c4C3=O)cc2)CC1 | 31 |  |  | 230 |  | 0.71 |  | 
23 | CN(C)Cc1ccccc1-c1ccc(NC(=O)c2cc(C(F)(F)F)nn2-c2ccc3onc(N)c3c2)c(F)c1 | 4.2 |  |  |  |  |  |  | 
24 | CN(C)Cc1nccn1-c1ccc(NC(=O)c2cc(C(F)(F)F)nn2-c2ccc3onc(N)c3c2)c(F)c1 [RAZAXABAN] | 2.1 |  |  |  |  |  |  | Ki [9]: > 2300 nM
25 | Nc1noc2ccc(-n3nc(C(F)(F)F)c4c3C(=O)N(c3ccc(-c5ccccc5CN5CCOCC5)cc3)CC4)cc12 | 41 |  |  | 130 |  | 0.35 |  | 
